Measured values published in patent publication US8669072B2, “Oxadiazoline ligands for modulating the expression of exogenous genes via an ecdysone receptor complex” (Intrexon Corporation, priority 2003, dated 2014).
Where two headings read alike, the source gives them in different places.

Key:
[1] = test system: MTA (two-spotted spider mite); assay: Insect toxicity contact bioassay, MTA; format: in vivo; settings: for Insect Toxicity LC50, MTA: in vivo
Procedure: (§1) The compound to be evaluated was dissolved in an appropriate solvent, usually a mix of acetone, methanol, and water. Test solutions were made by serial dilution of a stock test solution with acetone, methanol, and water. Initial evaluations were made at one or more concentrations on one or more of the following insects:
(§2) Contact bioassays (green peach aphid, two-spotted spider mite, white fly) were conducted by applying a solution of the test compound to the inside surface of a Petri dish. The solution was allowed to air-dry, then each dish was infested and the larvae from each treatment were transferred to a bioassay tray. The trays were held for one to seven days, and the mortality rating was determined for each treatment.

Beet Armyworm = assay: Insect toxicity feeding bioassay, BAW; format: in vivo; settings: in vivo
Procedure: as §1
(§3) Feeding bioassays were conducted in bioassay trays containing insect diet. Treatments were made by applying 50 μL of test solution to the surface of the diet in each of 5 wells. After the test solution dried, each well was infested with a single neonate larva. The trays were held for six days and then the mortality rating was determined for each treatment.

Tobacco Budworm = assay: Insect toxicity bioassay, TBW; format: in vivo; settings: in vivo
Procedure: as §1, §3
Some of the tobacco budworm tests were conducted as follows. A test solution containing 600 ppm was made by dissolving a compound of the invention in a 1:1 acetone:methanol solution, then adding water to give a 5:5:90 acetone:methanol:water solution, and finally a surfactant was added at an equivalent of 7.37 g of surfactant per 100 L of test solution (1 ounce of surfactant per 100 gallons of test solution). Appropriate dilutions were prepared in water from the 600 ppm solution. A detached cotton leaf, Gossypium hirsutum was placed on moistened filter paper in a Petri dish (100×20 mms). The leaf was sprayed with the test solution using a rotating turntable sprayer and allowed to dry. The dish was infested with 10 first instar larvae of the tobacco budworm and covered with the lid. If the larvae were alive two days after treatment, fresh untreated cotton leaves were added. All treatments were maintained at 23.9-26.7° C. (75-80° F.) under fluorescent light in a well-ventilated room. Percent mortality was determined at four days after treatment.

[2] = target: CfEcR (CDEF)/CfUSP, GST fusion protein (Choristoneura fumiferana, UniProt O77240); assay: CfEcR (CDEF)/CfUSP GST fusion protein assay; format: binding
WFN (white fly) = assay: Insect toxicity contact bioassay, WFN; format: in vivo; settings: for Insect Toxicity LC50, WFN: in vivo
Procedure: as §1, §2

Cabbage Looper = assay: Insect toxicity feeding bioassay, CL; format: in vivo; settings: in vivo
Procedure: as §1, §3

[3] = target: T1, GAL4 DBD-CfEcR(DEF)/VP16AD-MmRXRE (Choristoneura fumiferana, UniProt O77240); assay: 13B3 assay: luciferase reporter gene induction in stable CHO clone 13B3; format: cell-based; settings: for fold induction at 33.3 µM: 48 h, read-out: Fold Induction Average, 13B3 assay; for Rel Max FI, 13B3 assay: maximum fold induction relative to that of GS-E ligand
T1 construct: The wild-type D, E, and F domains from spruce budworm Choristoneura fumiferana EcR (“CfEcR-DEF”)
How it was run: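 Stable CHO clone 13B3 co-expressing GAL4 DBD-CfEcR(DEF) and VP16AD-MmRXRE with a GAL4 RE-luciferase reporter; ligands from DMSO stocks diluted 300-fold. Luciferase read by luminescence 48 h after treatment, duplicate wells averaged. Fold induction = RLU treated/RLU DMSO; EC50 from three-parameter logistic fit.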

Bombyx mori EcR (VBE) = target: T2, Bombyx mori EcR (VBE) (Bombyx mori, UniProt P49881); assay: Z3 assay: β-galactosidase reporter gene induction in HEK-293 clone Z3 (CVBE / 6XEcRE LacZ); format: cell-based; settings: for fold induction at 33 µM: HEK293, 48 h, read-out: Fold Induction Average, Z3 assay; for Rel Max FI, Z3 assay: maximum fold induction relative to that of GS-E ligand
T2 construct: expressed in transfected cells; host or cells: Human HEK-293 cells, retrovirally infected, clone Z3
T2 sequence (P49881 86-606 limits assumed): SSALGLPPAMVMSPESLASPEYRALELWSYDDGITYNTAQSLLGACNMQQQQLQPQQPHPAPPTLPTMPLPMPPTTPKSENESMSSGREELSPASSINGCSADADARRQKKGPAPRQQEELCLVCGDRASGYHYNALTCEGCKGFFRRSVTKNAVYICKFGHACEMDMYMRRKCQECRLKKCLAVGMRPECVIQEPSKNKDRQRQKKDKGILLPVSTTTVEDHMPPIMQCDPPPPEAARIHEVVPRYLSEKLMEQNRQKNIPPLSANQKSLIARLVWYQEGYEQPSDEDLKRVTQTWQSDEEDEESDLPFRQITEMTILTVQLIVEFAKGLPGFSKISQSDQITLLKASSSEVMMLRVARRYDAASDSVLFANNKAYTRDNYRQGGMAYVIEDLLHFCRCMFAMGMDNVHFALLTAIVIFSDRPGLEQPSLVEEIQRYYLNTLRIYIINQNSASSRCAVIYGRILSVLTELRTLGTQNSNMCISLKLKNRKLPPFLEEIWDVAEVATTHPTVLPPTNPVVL
T2 sequence (P19793 1-462 partner): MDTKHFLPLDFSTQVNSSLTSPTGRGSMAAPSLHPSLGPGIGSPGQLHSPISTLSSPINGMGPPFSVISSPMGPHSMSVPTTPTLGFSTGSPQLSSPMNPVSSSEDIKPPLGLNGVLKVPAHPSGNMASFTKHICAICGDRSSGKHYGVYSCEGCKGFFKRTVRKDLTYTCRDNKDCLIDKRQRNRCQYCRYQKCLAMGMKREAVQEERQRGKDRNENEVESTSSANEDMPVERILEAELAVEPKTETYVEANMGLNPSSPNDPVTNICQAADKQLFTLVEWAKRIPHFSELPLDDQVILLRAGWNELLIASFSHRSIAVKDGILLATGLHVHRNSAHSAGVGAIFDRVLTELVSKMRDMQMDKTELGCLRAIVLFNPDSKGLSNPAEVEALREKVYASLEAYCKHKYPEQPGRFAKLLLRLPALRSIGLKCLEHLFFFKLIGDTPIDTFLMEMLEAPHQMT

[4] = target: T3, GAL4 DBD (1-147)-CfEcR(DEF)/VP16AD-βRXREF-LmUSPEF (Choristoneura fumiferana, UniProt O77240); assay: cell-based; settings: for fold induction at 33.3 µM: 48 h, read-out: Fold Induction Average, 27-63 assay; for Rel Max FI, 27-63 assay: maximum fold induction relative to that of GS-E ligand
T3 construct: The wild-type D, E, and F domains from spruce budworm Choristoneura fumiferana EcR (“CfEcR-DEF”)
How it was run: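 CHO clone stably carrying the GAL4-DBD–spruce budworm EcR(DEF) and VP16–RXR/USP chimeric receptor with a GAL4-responsive luciferase reporter; ligand added from DMSO stock diluted 300-fold.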

Kc = Kc EC50; format: cell-based
Plodia = Plodia EC50; format: cell-based

CfEcR (CDEF)/CfUSP, GST fusion protein, sequence (O77240 entry or part of it): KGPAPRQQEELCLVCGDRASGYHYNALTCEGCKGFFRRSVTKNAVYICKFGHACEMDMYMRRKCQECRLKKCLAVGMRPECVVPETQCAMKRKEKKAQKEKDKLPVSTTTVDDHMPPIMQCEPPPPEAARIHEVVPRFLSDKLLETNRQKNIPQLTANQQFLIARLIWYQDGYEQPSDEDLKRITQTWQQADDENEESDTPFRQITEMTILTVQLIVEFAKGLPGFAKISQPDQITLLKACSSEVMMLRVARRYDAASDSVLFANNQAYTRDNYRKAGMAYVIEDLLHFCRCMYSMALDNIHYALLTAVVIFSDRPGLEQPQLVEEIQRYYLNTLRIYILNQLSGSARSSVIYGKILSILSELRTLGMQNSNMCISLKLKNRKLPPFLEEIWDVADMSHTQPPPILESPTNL
CfEcR (CDEF)/CfUSP, GST fusion protein, sequence (O76202 whole entry, further chain, the tested form may be a part): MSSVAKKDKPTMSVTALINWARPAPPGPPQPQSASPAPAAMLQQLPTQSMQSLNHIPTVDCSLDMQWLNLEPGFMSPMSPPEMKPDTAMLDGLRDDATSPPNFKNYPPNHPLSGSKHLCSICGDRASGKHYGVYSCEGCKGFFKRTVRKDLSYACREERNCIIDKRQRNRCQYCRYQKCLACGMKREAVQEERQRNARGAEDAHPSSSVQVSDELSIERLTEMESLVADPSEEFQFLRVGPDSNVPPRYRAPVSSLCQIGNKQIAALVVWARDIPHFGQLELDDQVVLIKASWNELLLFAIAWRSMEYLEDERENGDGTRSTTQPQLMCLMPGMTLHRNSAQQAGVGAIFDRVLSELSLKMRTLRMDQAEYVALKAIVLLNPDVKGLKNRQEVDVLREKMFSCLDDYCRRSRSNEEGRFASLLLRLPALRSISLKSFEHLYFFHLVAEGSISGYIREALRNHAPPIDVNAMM

Row | Structure (SMILES) | Insect Toxicity LC50, MTA [1] [ppm] | Insect Toxicity LC50, BAW (Beet Armyworm) [ppm] | Insect Toxicity LC50, TBW (Tobacco Budworm) [ppm] | EC50 [2] [nM] | Insect Toxicity LC50, WFN (WFN (white fly)) [ppm] | Insect Toxicity LC50, CL (Cabbage Looper) [ppm] | EC50 [3] [µM] | fold induction at 33.3 µM [3] | Rel Max FI, 13B3 assay [3] | EC50 (Bombyx mori EcR (VBE)) [µM] | fold induction at 33 µM (Bombyx mori EcR (VBE)) | Rel Max FI, Z3 assay (Bombyx mori EcR (VBE)) | EC50 [4] [µM] | fold induction at 33.3 µM [4] | Rel Max FI, 27-63 assay [4] | also measured
1 | CCc1c(OC)cccc1C(=O)NN1C(c2ccccc2)=NOC1(C)CC (stereo not shown) [RG-120076] | 92 | 47 | >150 | 8.35 | >150 | 47 | > 33.3 | 20.2 | 0.05 | 12.4 | 0.2 | 0.9 | ~20 | 4090 | 1.4 | –
2 | CCc1ccc(C(=O)NN2C(c3cc(C)cc(C)c3)=NOC2(C)C)cc1 [RG-120060] | – | 23 | >150 | – | – | 47 | – | 16.8 | – | – | 108 | – | > 33 | – | 0.01 | Insect Toxicity % control @ 150 ppm, MTA [1]: 0% @ 150; Kd ([2]; GST fusion protein, read-out: CfEcR Kd): 38 nM; Insect Toxicity % control @ 150 ppm, WFN (WFN (white fly)): 0% @ 150
3 | COc1cccc(C(=O)NN2C(c3ccccc3)=NOC2(C)C)c1C [RG-120042, N-(5,5-dimethyl-3-phenyl-[1,2,4]oxadiazol-4-yl)-3-methoxy-2-methyl-benzamide] | – | – | – | – | – | – | – | 3.3 | – | – | 19.3 | – | > 33 | – | 0 | EC50 (Kc): 29 µM; melting point: 141 to 142 °C; EC50 (Plodia): 481 nM
4 | CCc1c(OC)cccc1C(=O)NN1C(c2cc(C)cc(C)c2)=NOC1(C)CC (stereo not shown) [RG-120069] | 146 | 4.7 | >150 | 14.2 | >150 | 4.7 | 2.95 | 478 | 1.02 | 1.68 | – | 0.8 | 3.31 | 1870 | 1.11 | –
5 | CCC1(C)ON=C(c2cc(C)cc(C)c2)N1NC(=O)c1cc2ccccc2s1 (stereo not shown) [RG-120161] | 110 | 87 | >150 | 62.4 | >150 | 17 | 3.46 | 59.9 | 0.14 | 2.14 | – | 0.08 | – | – | – | –
6 | CCc1ccc(C(=O)NN2C(c3cc(C)cc(C)c3)=NOC2(C)CC)cc1 (stereo not shown) [RG-120128] | >150 | 47 | >150 | 28.5 | >150 | 17 | – | 129 | – | – | 403 | – | ~20 | 338 | 0.18 | –
7 | CCc1ccc(C(=O)NN2C(c3ccccc3)=NOC23CCCC3)cc1 [RG-120125] | 167 | 98 | >150 | – | 150 | 23 | > 33.3 | 82.6 | 0.16 | 10 | 254 | 0.67 | ~20 | 510 | 0.27 | EC50 ([2]; GST fusion protein, read-out: CfEcR EC50): 57.9 nM
8 | CCc1c(OC)cccc1C(=O)NN1C(c2cc(C)cc(C)c2)=NOC1(C)C [RG-120080, N-[3-(3,5-dimethyl-phenyl)-5,5-dimethyl-[1,2,4]oxadiazol-4-yl]-2-ethyl-3-methoxy-benzamide] | – | 23 | >150 | – | – | 47 | 12.3 | 717 | 1.04 | 3.95 | 310 | 0.71 | 8.35 | – | 1.29 | Insect Toxicity % control @ 150 ppm, MTA [1]: 0% @ 150; Kd [2]: 11.9 nM; Insect Toxicity % control @ 150 ppm, WFN (WFN (white fly)): 0% @ 150
